In ChEMBL document CHEMBL5385848, “Discovery of novel hydroxyamidine based indoleamine 2,3-dioxygenase 1 (IDO1) and thioredoxin reductase 1 (TrxR1) dual inhibitors” (Eur J Med Chem, 2023):
Calls of active or inactive are those of the source. The calls are words filed in the database; no cut-off is given here.

Key:
[1] = tested on: HeLa; assay: Cytotoxicity against human HeLa cells transfected with IDO1 siRNA incubated for 24 hrs by CCK-8 assay (reference value: 9.74 +/- 1.64 uM); type: functional, cell-based
[2] = tested on: CT26; assay: Antitumor activity against mouse CT26 cells implanted in […] BALB/c mouse assessed as increase in CD4 Th lymphocytes at 15 to 60 mg/kg, ig administered daily for 28 days and measured every 4 days; type: functional, organism-based; conditions: dose 15-60 mg/kg, time 28.0 day
[3] = tested on: HCT-116; assay: Antitumor activity against human HCT-116 cells xenografted in ig dosed athymic nude BALB/c mouse assessed as tumor growth inhibition administered daily for 28 days and measured every 4 days; type: functional, organism-based; conditions: dose 15-60 mg/kg, time 28.0 day
[4] = molecular target: Indoleamine 2,3-dioxygenase 1 (Mus musculus) (UniProt P28776); assay: In vivo inhibition of IDO1 in BALB/c mouse implanted with mouse CT-26 cells assessed as increase in tumor Trp level at 60 mg/kg, po administered once daily by LC-MS/MS analysis; type: functional, organism-based
Chain of Indoleamine 2,3-dioxygenase 1 (Mus musculus) (P28776 whole entry, looked up): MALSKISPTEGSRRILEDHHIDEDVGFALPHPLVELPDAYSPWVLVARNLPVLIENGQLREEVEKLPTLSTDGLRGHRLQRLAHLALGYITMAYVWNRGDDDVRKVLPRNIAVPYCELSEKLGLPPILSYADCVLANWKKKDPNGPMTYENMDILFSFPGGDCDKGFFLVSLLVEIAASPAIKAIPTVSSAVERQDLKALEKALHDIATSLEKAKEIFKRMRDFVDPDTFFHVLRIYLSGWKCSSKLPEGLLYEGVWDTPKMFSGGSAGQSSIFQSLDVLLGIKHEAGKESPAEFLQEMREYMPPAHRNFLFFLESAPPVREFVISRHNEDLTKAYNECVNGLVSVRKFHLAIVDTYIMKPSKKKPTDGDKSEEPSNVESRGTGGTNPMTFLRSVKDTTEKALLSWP

[5] = tested on: HCT-116; assay: Cytotoxicity against human HCT-116 cells transfected with IDO1 siRNA incubated for 24 hrs by CCK-8 assay (reference value: 3.49 +/- 0.28 uM); type: functional, cell-based; conditions: HCT-116, 24 h
[6] = molecular target: Indoleamine 2,3-dioxygenase 1 (Mus musculus) (UniProt P28776); assay: In vivo inhibition of IDO1 in C57BL/6 mouse assessed as reduction in plasma Kyn/Trp ratio at 60 mg/kg, po administered once daily by LC-MS/MS analysis; type: functional, organism-based
[7] = tested on: HeLa; assay: Cytotoxicity against IDO1 knockdown human HeLa cells incubated for 24 hrs by CCK-8 assay (reference value: 45.93 +/- 2.23 nM); type: functional, cell-based
[8] = tested on: HCT-116; assay: Induction of cell cycle arrest in human HCT-116 cells assessed as G1/S phase arrest at 2.5 to 10 uM pretreated with NAC for 2 hrs followed by compound addition and measured after 12 hrs by PI staining based flow cytometry analysis; type: functional; conditions: dose 2.5-10 µM
[9] = molecular target: Indoleamine 2,3-dioxygenase 1 (Homo sapiens, UniProt P14902); assay: Inhibition of IDO1 in human HeLa cells using L-Tryptophan as substrate incubated for 24 hrs by microplate reader analysis; type: cell-based
Chain of Indoleamine 2,3-dioxygenase 1 (P14902 whole entry): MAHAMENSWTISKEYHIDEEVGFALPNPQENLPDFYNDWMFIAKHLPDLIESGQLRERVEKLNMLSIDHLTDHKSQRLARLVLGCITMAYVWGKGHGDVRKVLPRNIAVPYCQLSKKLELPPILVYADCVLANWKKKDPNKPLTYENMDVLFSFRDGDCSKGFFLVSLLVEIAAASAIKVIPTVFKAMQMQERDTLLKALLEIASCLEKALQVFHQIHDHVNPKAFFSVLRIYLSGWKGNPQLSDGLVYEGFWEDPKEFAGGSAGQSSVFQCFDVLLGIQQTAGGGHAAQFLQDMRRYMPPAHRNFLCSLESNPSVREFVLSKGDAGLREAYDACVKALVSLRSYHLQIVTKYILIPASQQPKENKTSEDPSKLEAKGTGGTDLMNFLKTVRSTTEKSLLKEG

[10] = tested on: Mus musculus; assay: In vivo inhibition of TrxR1 in human HCT-116 cells xenografted in athymic nude BALB/c mouse assessed as reduction in TrxR1 activity at 15 to 60 mg/kg, ig administered daily for 28 days and measured every 4 days; type: functional, organism-based; conditions: dose 15-60 mg/kg, time 28.0 day
[11] = tested on: HCT-116; assay: Induction of apoptosis in human HCT-116 cells assessed as apoptotic rate at 5 uM pretreated with NAC incubated for 24 hrs by Annexin-V/PI staining based flow cytometry analysis (reference value: 9.8 +/- 1.59%); type: functional
[12] = tested on: CT26; assay: Antitumor activity against mouse CT26 cells implanted in athymic nude BALB/c mouse assessed as reduction in proliferative nTreg lymphocytes at 15 to 60 mg/kg, ig administered daily for 28 days and measured every 4 days by immunofluorescence analysis; type: functional, organism-based; conditions: dose 15-60 mg/kg, time 28.0 day
[13] = tested on: CT26; assay: Antitumor activity against mouse CT26 cells implanted in athymic nude BALB/c mouse assessed as increase in CTL proliferation by measuring Ki67 expression at 60 mg/kg, ig administered daily for 28 days and measured every 4 days by immunofluorescence analysis; type: functional, organism-based; conditions: time 28.0 day
[14] = tested on: HCT-116; assay: Antitumor activity against human HCT-116 cells xenografted in athymic nude BALB/c mouse assessed as increase in necrosis of tumor cells at 15 to 60 mg/kg, ig administered daily for 28 days and measured every 4 days; type: functional, organism-based; conditions: dose 15-60 mg/kg, time 28.0 day
[15] = tested on: HCT-116; assay: Induction of cell cycle arrest in human HCT-116 cells assessed as G1/S phase arrest at 2.5 to 10 uM incubated for 24 hrs by PI staining based flow cytometry analysis; type: functional; conditions: dose 2.5-10 µM
[16] = tested on: HCT-116; assay: Induction of ROS generation in human HCT-116 cells incubated for 4 hrs by DCFH-DA staining based flow cytometry analysis; type: functional, cell-based; conditions: dose 2.5-10 µM
[17] = tested on: HCT-116; assay: Induction of apoptosis in human HCT-116 cells assessed as apoptotic rate at 10 uM pretreated with NAC incubated for 24 hrs by Annexin-V/PI staining based flow cytometry analysis (reference value: 9.8 +/- 1.59%); type: functional
[18] = molecular target: T1, Thioredoxin reductase 1, cytoplasmic (Rattus norvegicus, UniProt O89049); assay: Inhibition of recombinant rat TrxR1 incubated for 1 hr in presence of NADPH by microplate reader analysis
T1 sequence (O89049 whole entry): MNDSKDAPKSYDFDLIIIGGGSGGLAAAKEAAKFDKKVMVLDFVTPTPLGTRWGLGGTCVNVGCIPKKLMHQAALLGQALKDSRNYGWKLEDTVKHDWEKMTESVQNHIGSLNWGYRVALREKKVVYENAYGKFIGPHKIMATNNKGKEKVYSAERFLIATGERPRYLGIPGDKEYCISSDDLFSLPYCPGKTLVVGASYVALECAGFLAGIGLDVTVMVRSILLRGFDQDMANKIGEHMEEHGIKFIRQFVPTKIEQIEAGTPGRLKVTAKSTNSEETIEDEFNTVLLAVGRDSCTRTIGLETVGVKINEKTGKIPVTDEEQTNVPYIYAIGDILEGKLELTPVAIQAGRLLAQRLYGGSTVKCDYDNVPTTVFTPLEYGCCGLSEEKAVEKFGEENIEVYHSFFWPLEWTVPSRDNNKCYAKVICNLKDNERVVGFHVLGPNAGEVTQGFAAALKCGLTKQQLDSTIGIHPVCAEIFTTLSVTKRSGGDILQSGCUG

[19] = molecular target: T2, Thioredoxin reductase 3 (Homo sapiens, UniProt Q86VQ6); assay: Inhibition of TrxR3 (unknown origin) incubated for 1 hr in presence of NADPH by microplate reader analysis
T2 sequence (Q86VQ6 whole entry): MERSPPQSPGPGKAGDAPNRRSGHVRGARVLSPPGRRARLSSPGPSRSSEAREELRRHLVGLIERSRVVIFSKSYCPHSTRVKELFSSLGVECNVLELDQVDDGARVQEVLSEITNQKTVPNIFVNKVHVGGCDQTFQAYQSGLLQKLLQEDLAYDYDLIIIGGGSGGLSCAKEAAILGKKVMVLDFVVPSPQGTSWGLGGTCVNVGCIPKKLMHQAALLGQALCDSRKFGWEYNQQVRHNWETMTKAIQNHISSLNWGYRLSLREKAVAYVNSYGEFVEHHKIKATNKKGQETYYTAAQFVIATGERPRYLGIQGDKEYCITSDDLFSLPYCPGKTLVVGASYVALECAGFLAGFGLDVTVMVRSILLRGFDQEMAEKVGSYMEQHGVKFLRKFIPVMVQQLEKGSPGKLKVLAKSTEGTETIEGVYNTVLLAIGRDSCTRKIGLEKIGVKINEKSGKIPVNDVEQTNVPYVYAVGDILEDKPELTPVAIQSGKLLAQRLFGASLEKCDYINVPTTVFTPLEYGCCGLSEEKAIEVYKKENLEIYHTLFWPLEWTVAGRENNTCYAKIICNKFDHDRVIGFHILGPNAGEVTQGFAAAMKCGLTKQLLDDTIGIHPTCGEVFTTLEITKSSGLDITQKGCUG

[20] = tested on: HeLa; assay: Cytotoxicity against human HeLa cells incubated for 24 hrs in presence of NAC CCK-8 assay; type: functional, cell-based
[21] = tested on: CT26; assay: Antitumor activity against mouse CT26 cells implanted in athymic nude BALB/c mouse assessed as reduction in CD4+CD25+Foxp3+ lymphocytes at 15 to 60 mg/kg, ig administered daily for 28 days and measured every 4 days by immunofluorescence analysis; type: functional, organism-based; conditions: dose 15-60 mg/kg, time 28.0 day

`O=C(Cc1ccc(O)cc1)Nc1nnc(CCCNc2nonc2/C(=N\O)Nc2ccc(F)c(Br)c2)s1` was tested, and the IC50 [1] was 10.1 µM, the Activity [2] was “Active” and the Activity [3] was “Active”. For the same compound, the Activity [4] was “Active”, the IC50 [5] was 3.79 µM and the Activity [6] was “Active”. For the same compound, the IC50 [7] was 26.1 µM, the Activity [8] was “inactive” and the EC50 [9] was 45.6 µM. The Activity [10] was “Active”, the Activity [11] was 11.98% and the Activity [12] was “Active”. The Activity [13] was “Active”, the Activity [14] was “Active” and the Activity [15] was “Active”. The Activity [16] was “Dose-Dependent Effect”, the Activity [17] was 15.21% and the IC50 [18] was 3 µM. For the same compound, the IC50 [19] was greater than 500 µM, the IC50 [20] was 74.2 µM and the Activity [21] was “Active”.
